Experimental data reported in patent publication US20080125469A1, “Thiadiazole compounds and methods of use thereof” (Wyeth, priority 2006, published 2008).

Each molecule was assayed against T1, purified recombinant human Aggrecanase-2 (Agg2-Phe628) (Homo sapiens, UniProt Q9UNA0) (assay: Aggrecanase 2 continuous in vitro fluorescence assay). Conditions: Agg2-Phe628 0.5 μg/ml, substrate 25 μM, 30° C.; read-out: IC50.
T1 construct: (Agg2-Phe628) (MW=41,737), which is a truncated form of full-length human aggrecanase-2; made in house; host or cells: CHO cells
T1 sequence (Q9UNA0 262-628 limits assumed): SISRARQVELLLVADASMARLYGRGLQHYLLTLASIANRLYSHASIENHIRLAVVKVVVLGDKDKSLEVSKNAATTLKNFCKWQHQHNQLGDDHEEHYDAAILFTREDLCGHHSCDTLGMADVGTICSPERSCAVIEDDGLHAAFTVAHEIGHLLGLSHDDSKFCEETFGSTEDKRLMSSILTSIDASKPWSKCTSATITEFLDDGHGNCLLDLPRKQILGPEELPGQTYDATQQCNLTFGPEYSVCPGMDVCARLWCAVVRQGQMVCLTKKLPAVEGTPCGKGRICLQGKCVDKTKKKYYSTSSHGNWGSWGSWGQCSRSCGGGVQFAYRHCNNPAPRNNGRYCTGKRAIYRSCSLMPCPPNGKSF
Format: biochemical
Experimental: A continuous vitro fluorescence assay was employed, wherein the enzyme used in the assay was a purified recombinant human Aggrecanase-2 (Agg2-Phe628) (MW=41,737), which is a truncated form of full-length human aggrecanase-2 that was expressed in CHO cells and purified prior to use. The final concentration of Agg2-Phe628 was 0.5 μg/ml. The buffer used in this assay was 50 mM HEPES, pH 7.5, 100 mM NaCl, 5 mM CaCl2, 0.1% CHAPS, 5% glycerol. The substrate used in the assay was a synthetic peptide having the sequence ABz-[sequence]-Dap(Dnp)-KK—NH2 (>95% pure by HPLC, AnaSpec, Inc.), wherein Abz refers to ortho-aminobenzyl, a fluorescent group which is quenched by energy transfer to a 2,4-dinitrophenyl group. The final concentration of substrate in the assay was 25 μM and was spectrophotometrically determined using the extinction coefficient at 354 nm of 18,172 M^−1cm^−1. The Vmax and Km for this enzyme/substrate reaction were determined to be insensitive to DMSO up to at least 10% (v/v).
The total reaction volume was 100 μl. The buffer and enzyme were added first followed by addition of 10× inhibitor from the dilution plate. Separate enzyme and buffer samples were included in order to obtain the maximal rate of substrate cleavage. The reaction was allowed to stand at 30° C. for 15 minutes, then substrate was added, the resultant solution was mixed. The resultant reaction was allowed to progress, with monitoring, for 40 minutes at 30° C. in kinetic mode using λex: 340 nm and λem: 420 (GeminiXS Molecular Devices).
The fluorescence intensity is linear during the time of data collection. The slope of the line (Vmax/sec) represents the initial reaction rate, ν. The maximal rate of cleavage of substrate was determined in the absence of inhibitor. The percent inhibition of activity in the presence of inhibitor was calculated using the following equation:
% inhibition=(1−ν(RFU/sec))/Maximal Rate(RFU/sec))*100
The IC50 was obtained by fitting the initial rate, ν or % inhibition at each concentration of inhibitor to the following equation:
This model describes a sigmoidal curve with an adjustable baseline, wherein:
y is the % inhibition or initial rate of reaction;
C is the concentration of inhibitor under test;
a is the limiting response as C approaches zero. As C increases without bound y tends toward its lower limit, d;
y is halfway between the lower and upper asymptotes when C=IC50; and
n is the Hill coefficient. The sign of n is positive when the response increases with increasing dose and is negative when the response decreases with increasing dose (inhibition).
Molecule `COc1ccc(C2=NNC3(S2)C(=O)Nc2ccc([N+](=O)[O-])cc23)cc1` (stereo not shown) [Compound 16, 5′-(4-methoxyphenyl)-5-nitro-3′H-spiro[indole-3,2′-[1,3,4]thiadiazol]-2(1H)-one] has an IC50 of 4.43 µM.
`COc1ccc(C2=NNC3(S2)C(=O)Nc2cc(Cl)ccc23)cc1` (stereo not shown) [Compound 12, 6-chloro-5′-(4-methoxyphenyl)-3′H-spiro[indole-3,2′-[1,3,4]thiadiazol]-2(1H)-one] was tested, and the IC50 was 1.19 µM.
In the case of `CCCC(=O)N1C(=O)C2(NN=C(c3ccc(C)cc3)S2)c2cc(CC)ccc21` (stereo not shown) [Compound 45, 1-butyryl-5-ethyl-5′-(4-methylphenyl)-3′H-spiro[indole-3,2′-[1,3,4]thiadiazol]-2(1H)-one], the IC50 is reported as 1.45 µM.
Molecule `O=C1Nc2ccc(OC(F)(F)F)cc2C12NN=C(c1ccccc1)S2` (stereo not shown) [Compound 31, 5′-phenyl-5-(trifluoromethoxy)-3′H-spiro[indole-3,2′-[1,3,4]thiadiazol]-2(1H)-one] has an IC50 of 7.22 µM.
`O=C1Nc2cc(F)c(F)cc2C12NN=C(c1ccccc1)S2` (stereo not shown) [Compound 39, 5,6-difluoro-5′-phenyl-3′H-spiro[indole-3,2′-[1,3,4]thiadiazol]-2(1H)-one] gave an IC50 of 14.3 µM.
In the case of `CCN1C(=O)C2(NN=C(c3ccc(OC)cc3)S2)c2cc(F)c(N3CCN(C)CC3)cc21` (stereo not shown) [Compound 21, 1-ethyl-5-fluoro-5′-(4-methoxyphenyl)-6-(4-methylpiperazin-1-yl)-3′H-spiro[indole-3,2′-[1,3,4]thiadiazol]-2(1H)-one], the IC50 is reported as 5.42 µM.
`O=C1Nc2ccc(Br)cc2C12NN=C(c1ccccc1)S2` (stereo not shown) [Compound 54, 5-bromo-5′-phenyl-3′H-spiro[indoline-3,2′-[1,3,4]thiadiazol]-2-one] gave an IC50 of 13.6 µM.
With `CN1C(=O)C2(NN=C(c3ccccc3)S2)c2ccccc21` (stereo not shown) [Compound 52, 1-methyl-5′-phenyl-3′H-spiro[indoline-3,2′-[1,3,4]thiadiazol]-2-one] the IC50 was 24.1 µM.
For `COc1ccc(C2=NNC3(S2)C(=O)Nc2c(C)cccc23)cc1` (stereo not shown) [Compound 18, 5′-(4-methoxyphenyl)-7-methyl-3′H-spiro[indole-3,2′-[1,3,4]thiadiazol]-2(1H)-one], the IC50 was 3.75 µM.
`COc1ccc(C2=NNC3(S2)C(=O)N(c2ccccc2C)c2ccc(C)cc23)cc1` (stereo not shown) [Compound 23, 5′-(4-methoxyphenyl)-5-methyl-1-(2-methylphenyl)-3′H-spiro[indole-3,2′-[1,3,4]thiadiazol]-2(1H)-one] was tested, and the IC50 was 0.899 µM.
`CCCc1ccc2c(c1)N(Cc1ccccc1)C(=O)C21NN=C(c2ccc(OC)cc2)S1` (stereo not shown) [Compound 28, 1-benzyl-5′-(4-methoxyphenyl)-6-propyl-3′H-spiro[indole-3,2′-[1,3,4]thiadiazol]-2(1H)-one] gave an IC50 of 0.95 µM.
Work on `COc1ccc(C2=NNC3(S2)C(=O)Nc2ccccc23)cc1` (stereo not shown) [Compound 3, 5′-(4-methoxyphenyl)-3′H-spiro[indole-3,2′-[1,3,4]thiadiazol]-2(1H)-one] yielded an IC50 of 13.4 µM.

Same assay, conditions: inhibitor concentration not given
“1-(4-chlorobenzoyl)-5′-(4-methoxyphenyl)-3′H-spiro[indole-3,2′-[1,3,4]thiadiazol]-2(1H)-one [Compound 36]” was tested, and the “% Inhibition” value was 48%.
For `Cc1ccc(C2=NNC3(S2)C(=O)N(C)c2ccccc23)cc1` (stereo not shown) [Compound 51, 1-methyl-5′-(4-methylphenyl)-3′H-spiro[indole-3,2′-[1,3,4]thiadiazol]-2(1H)-one], the “% Inhibition” value was 4.6%.
`Cc1ccc(C2=NNC3(S2)C(=O)Nc2ccc(C)cc23)cc1` (stereo not shown) [Compound 49, 5-methyl-5′-(4-methylphenyl)-3′H-spiro[indole-3,2′-[1,3,4]thiadiazol]-2(1H)-one] was tested, and the “% Inhibition” value was 3%.
With `CCc1ccc2c(c1)C1(NN=C(c3ccc(C)cc3)S1)C(=O)N2` (stereo not shown) [Compound 48, 5-ethyl-5′-(4-methylphenyl)-3′H-spiro[indole-3,2′-[1,3,4]thiadiazol]-2(1H)-one] the “% Inhibition” value was 1.9%.
